Data on 8 molecules can be found in article PMC3913017, “A Method for Fast Assessment of OP/CB Exposure in the Japanese Quail (Coturnix coturnix japonica) Using Combined Esterases Enzyme Activity as Biomarkers” (Enzyme Research, 2014).

Usually Vmax stands for the rate approached at saturating substrate. Usually Km stands for the substrate concentration at which the rate is half of its maximum. What is called inhibition is the share of the control response that was lost under treatment.

Like-named read-outs stand apart in the source and are kept apart here.

For series [1], the target named is T1, cholinesterase (ChE) in blood plasma (Coturnix japonica, UniProt A0A8C2YFF6). Briefly: Substrate hydrolysis and kinetics, blood plasma ChE. The note with it: for reaction rate of substrate hydrolysis, plasma: blood plasma, 1 mM AcTChI, BuTChI, 2 mM PrTChI. In kind it is biochemical, Japanese quail (Coturnix coturnix japonica).
T1 sequence (A0A8C2YFF6 30-604): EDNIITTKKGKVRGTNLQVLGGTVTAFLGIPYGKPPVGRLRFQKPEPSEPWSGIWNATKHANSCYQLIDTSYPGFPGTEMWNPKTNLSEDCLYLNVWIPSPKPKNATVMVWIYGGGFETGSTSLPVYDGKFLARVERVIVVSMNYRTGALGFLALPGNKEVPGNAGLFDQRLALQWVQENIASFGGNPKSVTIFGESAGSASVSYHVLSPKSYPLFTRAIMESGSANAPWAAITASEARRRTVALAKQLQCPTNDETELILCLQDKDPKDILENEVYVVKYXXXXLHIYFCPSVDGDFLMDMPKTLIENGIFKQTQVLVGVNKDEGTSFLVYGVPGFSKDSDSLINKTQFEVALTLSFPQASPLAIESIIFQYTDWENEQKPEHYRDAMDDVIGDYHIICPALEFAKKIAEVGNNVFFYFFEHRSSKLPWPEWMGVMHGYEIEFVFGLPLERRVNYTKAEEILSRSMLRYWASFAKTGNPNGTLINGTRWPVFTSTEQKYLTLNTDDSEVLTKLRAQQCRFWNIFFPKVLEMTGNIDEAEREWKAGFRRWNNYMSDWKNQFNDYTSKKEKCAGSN
Experimental: (§1) To obtain plasma, 1 mL blood samples were added to anticoagulant (heparin, 3.7 mg, final concentration 0.1%) in 5 mL centrifuge tubes. Plasma was separated by centrifugation at 5000 g for 10 min. The liver was removed using a scalpel, cut into small pieces (2-3 mm^3), and rinsed until the blood was fully removed. The liver was then placed on ice in 5 mL tubes (5 mm internal diameter) and homogenized using a mechanically driven homogenizer with phosphate buffer (0.1 M, pH 8) with a 1 : 10 ratio (w/v) of 1 part of liver tissue to 9 parts of buffer and a speed of 10000 rpm. Homogenisation required 3 min; after every one min or so of homogenization, the mixture was rested for 30 s to allow cooling. The homogenate was then centrifuged at 5000 g for 10 min and the supernatant fraction was retained and used for subsequent analyses.
(§2) Enzyme activity was determined at room temperature 25°C by the Ellman method [18], and using thioacetate (PSA) for measuring CbE enzyme activity or by using thiocholine (e.g., AcTChI, BuTChI, or PrTChI substrate) for measuring ChE enzyme activities [19]. […] Substrate solutions (final concentration 2 mM for PrTChI and PSA, while 1 mM for AcTChI and BuTChI) were prepared and used on the same day and kept on ice during use. Enzyme activities were calculated using an extinction coefficient of 13.6 mM^−1 cm^−1 for TNB [21] and are expressed as units (1 U ≡ 1 μmol ≡ 1000 nmol of substrate hydrolysed per min) per g wet weight of liver homogenate, while for plasma they are expressed as U/mL [2]. All measurements in this paper were carried out in duplicate.
The subject of series [2] is cholinesterase (ChE) in liver homogenate. Briefly: Substrate hydrolysis, liver homogenate ChE. In kind it is biochemical, Japanese quail (Coturnix coturnix japonica). The note with it: 1 mM AcTChI, BuTChI, 2 mM PrTChI.
Experimental: as §1
(§3) Enzyme activity was determined at room temperature 25°C by the Ellman method [18], and using thioacetate (PSA) for measuring CbE enzyme activity or by using thiocholine (e.g., AcTChI, BuTChI, or PrTChI substrate) for measuring ChE enzyme activities [19]. […] Enzyme activities were calculated using an extinction coefficient of 13.6 mM^−1 cm^−1 for TNB [21] and are expressed as units (1 U ≡ 1 μmol ≡ 1000 nmol of substrate hydrolysed per min) per g wet weight of liver homogenate, while for plasma they are expressed as U/mL [2]. […]
The target in series [3] is carboxylesterase (CbE) in blood plasma. Kind of series: In vitro inhibition of blood plasma CbE by CB/OP pesticides (Ellman, PSA substrate). In kind it is biochemical, Japanese quail (Coturnix coturnix japonica). The note with it: for IC50: substrate PSA, 30 min 25°C, mean ± SE, read-out: Half maximal inhibitory concentration (IC50), PSA. (In general: In Ellman's method for cholinesterases, released thiocholine reacts with DTNB.)
Experimental: To obtain plasma, 1 mL blood samples were added to anticoagulant (heparin, 3.7 mg, final concentration 0.1%) in 5 mL centrifuge tubes. Plasma was separated by centrifugation at 5000 g for 10 min.
as §2
Then esterases enzyme activity was measured as explained in the above section. For the measurement of half maximal inhibitory concentrations (IC50), samples were inhibited for 30 min at room temperature 25°C with appropriate concentration of CB or OP pesticide compounds, depending on preliminary range finding tests. Controls that were incubated with phosphate buffer pH 8.0 were included. Then the enzyme activity was determined as described above. Then the data were fitted with nonlinear regression analysis using a single exponential decay by SigmaPlot 11 (Systat software, Inc.).

The test system of series [4] is carboxylesterase (CbE) in blood plasma. Briefly: Inhibition rate constant (ki), blood plasma CbE (PSA substrate). In kind it is biochemical, Japanese quail (Coturnix coturnix japonica). The note with it: 4 mM methomyl, 2 mM parathion, malathion, trichlorfon, 1–60 min, 25°C, mean ± SE. The protocol: Blanks were also run at each selected inhibitor for each based on the absorbance tested. Then the enzyme activity was determined as described in above. The decrease in esterases enzyme activity over different times (1–60 min) at room temperature 25°C was detected. Then the data of inhibition time courses at different times after inhibition was fitted with a single exponential decay using SigmaPlot 11. However, the percentage inhibition was calculated from the ratio between the activity of an exposed sample and unexposed controls by the following formula: (1) % Inhibition =[…].

The subject of another series is quails. The note with it: cited from earlier work.
Series [5] concerns the target T1, cholinesterase (ChE) in blood plasma. Briefly: Inhibition rate constant (ki), blood plasma ChE (thiocholine substrates). The note with it: for ki value, range: blood plasma, range over the substrates AcTChI, BuTChI, PrTChI and PSA.
Experimental: as §2
Controls that were incubated with phosphate buffer pH 8.0 were included when appropriated. Blanks were also run at each selected inhibitor for each based on the absorbance tested. Then the enzyme activity was determined as described in above. The decrease in esterases enzyme activity over different times (1–60 min) at room temperature 25°C was detected. Then the data of inhibition time courses at different times after inhibition was fitted with a single exponential decay using SigmaPlot 11. However, the percentage inhibition was calculated from the ratio between the activity of an exposed sample and unexposed controls by the following formula: (1) % Inhibition =Esterases enzyme activity with inhibitor/Esterases enzyme activity without inhibitor×100.
For series [6], the system named is carboxylesterase (CbE) in blood plasma. Briefly: Substrate hydrolysis, blood plasma CbE (PSA). The note with it: 2 mM PSA. In kind it is biochemical, Japanese quail (Coturnix coturnix japonica).
Experimental: as §1, §3
The subject of series [7] is carboxylesterase (CbE) in liver homogenate. Briefly: Substrate hydrolysis and kinetics, liver homogenate CbE (PSA). In kind it is biochemical, Japanese quail (Coturnix coturnix japonica).
Experimental: as §1, §2
In series [8] the target is T1, cholinesterase (ChE) in blood plasma. Kind of series: In vivo oral exposure 48 h, plasma ChE inhibition. The arrangement: species or system Japanese quail (Coturnix coturnix japonica). The protocol: The extent of inhibition of esterases enzyme activity was also assessed following in vivo exposure of test of quail by oral dosing (n = 15) were exposed to test solutions of parathion, malathion, methomyl, trichlorfon, or control (water) in cages. […] Samples were prepared and assayed as explained in the above section.

The next series has as its system ChE enzyme. Kind of series: Incubation with general serine esterase inhibitor, ChE activity. In kind it is biochemical, Japanese quail (Coturnix coturnix japonica). The note with it: 3 mM inhibitor.
Another series has as its system CbE enzyme. Briefly: Incubation with general serine esterase inhibitor, CbE activity. In kind it is biochemical, Japanese quail (Coturnix coturnix japonica). As to conditions: 3 mM inhibitor.
Where [9] appears, read: read-out: inhibition of control activity.

For the molecule `CCCC(=O)SCC[N+](C)(C)C.[I-]` [BuTChI, (2-mercaptoethyl) trimethylammonium iodide butyrate], the Vmax in series [1] (blood plasma ChE, Figure 4(a)) was determined as 1011 nmol/min/mL. For the same molecule, the Michaelis-Menten constant (Km) in series [1] (blood plasma ChE, substrate 0.125–2 mM, read-out: Km (apparent Michaelis constant)) is 394 µM. Moreover, the “reaction rate of substrate hydrolysis, plasma” value (from here on “reaction rate … plasma”) in series [1] was found to be 1321.5 nmol/min/mL. Besides, the “reaction rate of substrate hydrolysis, liver homogenate” value (“reaction rate … liver homogenate” for short) in series [2] stood at 304.5 nmol/min/g.
Regarding `CCOC(=O)CC(SP(=S)(OC)OC)C(=O)OCC` (stereo not shown) [Malathion, S-1,2-bis(ethoxycarbonyl) ethyl O,O-dimethyl phosphorodithioate], in series [3], the IC50 is 910 ± 400 µM. For the same molecule, in series [4], the “Rate constant inhibition (ki), PSA” value is 175.6 ± 16.0 × 10^−3 min^−1. Also, the “median lethal dose (LD50)” value in the series with quails (oral, quails) is 400 mg/kg. Also, the “ki value, range” value in [5] is 0.0358 to 0.1756 min⁻¹. The inhibition at 2000 µM in series [5] (setting [9]) is 83 to 99%.
In the case of `CNC(=O)ON=C(C)SC` [Methomyl, S-methyl-N((methylcarbamoyl)oxy) thioacetimidate], in series [3] (in vitro, PSA, Figure 10(a)), the “CbE enzyme activity sensitivity to inhibition” value is reported as “insensitive to the CB methomyl except at high concentrations”. Besides, the IC50 in series [3] stood at 610 ± 20 µM. Further, the “Rate constant inhibition (ki), PSA” value in series [4] is listed as 345.3 ± 12.4 × 10^−3 min^−1. The “median lethal dose (LD50)” value in the series with quails (in vivo, po) is on record as 24.2 mg/kg. Besides, the “ki value, range” value in series [5] fell in the range of 0.1224 to 0.5674 min⁻¹. Besides, the inhibition at 4000 µM in series [5] (setting [9]) lay in the range of 83 to 99%.
Take `CC(=O)Sc1ccccc1` [PSA, thiophenyl acetate]: in [6], the “reaction rate … plasma” value was 68.9 nmol/min/mL. In addition, in series [7] (liver CbE, Figure 4(b)), the Vmax was found to be 1195 nmol/min/g. In addition, the Michaelis constant (Km) in [7] (liver CbE, substrate 0.25–4 mM, read-out: apparent Km) came out at 713 µM. For the same molecule, the “reaction rate … liver homogenate” value in series [7] (liver homogenate, 2 mM PSA) is 1.765 µmol/min/g.
On to `CCOP(=S)(OCC)Oc1ccc([N+](=O)[O-])cc1` [Parathion, O,O-diethyl O-(4-nitrophenyl) phosphorothioate], for which the IC50 in series [3] was 220 ± 60 µM. Moreover, the “Rate constant inhibition (ki), PSA” value in [4] was 453.2 ± 5.6 × 10^−3 min^−1. The “median lethal dose (LD50)” value in the series with quails (oral, quails) is listed as 6 mg/kg. Moreover, the “ki value, range” value in series [5] was in the range of 0.4532 to 0.8233 min⁻¹.
With `CCC(=O)SCC[N+](C)(C)C.[I-]` [PrTChI, (2-mercaptoethyl) trimethylammonium iodide propionate], the “reaction rate … plasma” value in [1] came to 211.9 nmol/min/mL. For the same molecule, in series [2], the “reaction rate … liver homogenate” value worked out at 113.9 nmol/min/g.
As to `COP(=O)(OC)C(O)C(Cl)(Cl)Cl` (stereo not shown) [Trichlorfon, dimethyl (2,2,2-trichloro-1-hydroxyethyl) phosphonate], the IC50 in series [3] was 510 ± 90 µM. Moreover, the “Rate constant inhibition (ki), PSA” value in series [4] is 976.9 ± 8.9 × 10^−3 min^−1. Besides, the inhibition at 11 mg/kg came to 12.1% in series [8] (read-out: % inhibition compared with the control, plasma, AcTChI); 33.2% in series [8] (read-out: % inhibition compared with the control, plasma, BuTChI); 11.7% in [8] (read-out: % inhibition compared with the control, plasma, PrTChI). The “median lethal dose (LD50)” value in the series on quails (oral, quails) is listed as 22 mg/kg. Further, the “ki value, range” value in [5] was 0.3451 to 0.9769 min⁻¹.
As to `O=S(=O)(F)Cc1ccccc1` [phenylmethanesulfonyl fluoride], the “level of ChE enzyme activity after incubation” value in the series on ChE enzyme was “insignificant levels”. The “level of CbE enzyme activity after incubation” value in the series with CbE enzyme is “insignificant levels”.
